Experimental data: patent publication US20260206761A1, “HETEROARYL-TRIAZOLE COMPOUNDS AS PESTICIDES” (Bayer Aktiengesellschaft, priority 2019, published 2026)

What was measured:
Assay type in all cases: in vivo
[1] = test system: fall armyworm larvae (Spodoptera frugiperda); assay: Spodoptera frugiperda spray test; conditions: 168 h, read-out: activity (mortality)
Method in brief: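 Compound in acetone/DMF, diluted in water with 1000 ppm alkylarylpolyglycol ether emulsifier, sprayed on maize leaf sections. Dried leaves infested with fall armyworm larvae; % mortality after 7 days (100% = all killed, 0% = none).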

[2] = test system: adult engorged female ticks (Rhipicephalus microplus); assay: Rhipicephalus (Boophilus) microplus injection test; conditions: 168 h, egg deposition after 7 days, read-out: activity (efficacy: infertile eggs); for pest or weed control at 4 pg: application rate 4 pg/animal; for pest or weed control at 0.02 mg: application rate 20 μg/animal
Method in brief: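 Five adult engorged female ticks injected into the abdomen with 1 μL compound solution in DMSO, then held in a climate chamber. Fertile egg deposition assessed after 7 days, unclear eggs kept until hatching (about 42 days); efficacy 100% = all eggs infertile, 0% = all fertile.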

[3] = test system: larvae of the banded cucumber beetle (Diabrotica balteata); assay: Diabrotica balteata spray test; conditions: 168 h, application rate 100 g/ha (=32 pg/well), after 7 days, read-out: activity (efficacy: seedlings grown)
Method in brief: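 Wheat seedlings, germinated 1 day on agar (5 seeds/well), sprayed with active compound in acetone/DMF diluted in water containing 1000 ppm emulsifier, then infested with 10-20 D. balteata larvae. Efficacy (%) scored after 7 days: 100% = seedlings grown as untreated uninfested control, 0% = no seedlings grown.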

[4] = test system: green peach aphid (Myzus persicae); assay: Myzus persicae oral test; conditions: 120 h, application rate 4 ppm, after 5 days
Method in brief: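 Compound was dissolved at 1 part by weight in 100 parts acetone, then diluted with water to test concentration and combined with IPL41 insect medium (33%+15% sugar). A mixed aphid population fed on this through a parafilm seal, and mortality (%) was scored after 5 days.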

[5] = test system: adult unfed cat fleas (Ctenocephalides felis); assay: Ctenocephalides felis oral test; conditions: 48 h, read-out: activity (mortality)
Procedure: Ctenocephalides felis—Oral Test
Solvent: dimethyl sulfoxide
To produce a suitable preparation of active compound, 10 mg of active compound are dissolved in 0.5 mL solvent, and the concentrate is diluted with cattle blood to the desired concentration.
Approximately 20 adult unfed cat fleas (Ctenocephalides felis) are placed in flea chambers. The blood chamber, sealed with parafilm on the bottom, are filled with cattle blood supplied with compound solution and placed on the gauze covered top of the flea chamber, so that the fleas are able to suck the blood. The blood chamber is heated to 37° C. whereas the flea chamber is kept at room temperature.
After 2 days mortality in % is determined. 100% means all the fleas have been killed; 0% means none of the fleas have been killed.

[6] = test system: Rhipicephalus microplus larvae (strain Parkhurst, resistant against synthetic pyrethroids); assay: Rhipicephalus (Boophilus) microplus in-vitro contact test, larval cattle tick; conditions: after 48 hours, read-out: activity (efficacy: larvae dead or moribund); for pest or weed control at 100 g/ha: application rate 1 pg/cm^2 (=100 g/ha); for pest or weed control at 500 g/ha: application rate 5 pg/cm^2 (=500 g/ha)
Method in brief: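 Acetone solutions coated onto inner walls of glass tubes by rotation (900 ppm giving 5 μg/cm^2); after evaporation, 20-50 larvae added per tube and held at 27° C., 85% relative humidity. Efficacy read after 48 h from negative geotactic behaviour; 100% = all larvae dead or moribund.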

[7] = test system: adult brown dog ticks (Rhipicephalus sanguineus); assay: Rhipicephalus sanguineus in-vitro contact test, adult brown dog ticks; conditions: after 48 hours, read-out: activity (efficacy: ticks dead or moribund); for pest or weed control at 100 g/ha: application rate 1 pg/cm^2 (=100 g/ha); for pest or weed control at 5 µg/cm2, 500 g/ha: application rate 5 μg/cm^2 (=500 g/ha)
Method in brief: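 Acetone solution (900 ppm giving 5 μg/cm²) coated on inner walls of glass tubes; after drying, 5-10 adult ticks added and held at room temperature 48 h. Ticks then placed on 45-50 °C plate ≤5 min; those unable to climb away scored dead/moribund, efficacy as % affected.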

[8] = test system: adult cat fleas (Ctenocephalides felis); assay: Ctenocephalides felis in-vitro contact test, adult cat flea; conditions: application rate 5 μg/cm^2 (=500 g/ha), after 48 hours, read-out: activity (efficacy: fleas dead or moribund)
Procedure: Ctenocephalides felis—In-Vitro Contact Tests Adult Cat Flea
9 mg compound is solved in 1 mL acetone and diluted with acetone to the desired concentration. 250 μL of the test solution is filled in 25 mL glass test tubes and homogeneously distributed on the inner walls by rotation and tilting on a shaking device (2 h at 30 rpm). With a compound concentration of 900 ppm, an inner surface of 44.7 cm^2 and a homogeneous distribution, a dose of […] is achieved.
After the solvent has evaporated, each test tube is filled with 5-10 adult cat fleas (Ctenocephalides felis), closed with a perforated lid and incubated in a lying position at room temperature and relative humidity. After 48 hours efficacy is determined. The fleas are patted on the ground of the tubes and are incubated on a heating plate at 45-50° C. for at most 5 minutes. Immotile or uncoordinated moving fleas, which are not able to escape the heat by climbing upwards, are marked as dead or moribund.
An efficacy of 100% means all fleas are dead or moribund; 0% means no fleas are dead or moribund.

[9] = test system: green peach aphid (Myzus persicae); assay: Myzus persicae spray test; conditions: 120 h, after 5 days; for mortality at 100 g/ha: application rate 100 g/ha; for mortality at 500 g/ha: application rate 500 g/ha
Procedure: Myzus persicae—Spray Test
Solvent: 78.0 parts by weight acetone • 1.5 parts by weight dimethylformamide
Emulsifier: alkylarylpolyglycol ether
To produce a suitable preparation of active compound, 1 part by weight of active compound is mixed with the stated amount of solvents and is diluted with water, containing an emulsifier concentration of 1000 ppm, to the desired concentration. Further test concentrations are prepared by dilution with emulsifier containing water.
Chinese cabbage (Brassica pekinensis) leaf disks infected with all instars of the green peach aphid (Myzus persicae), are sprayed with a preparation of the active ingredient of the desired concentration.
After 5 days mortality in % is determined. 100% means all aphids have been killed and 0% means none of the aphids have been killed.

[10] = test system: larvae of the southern green stink bug (Nezara viridula); assay: Nezara viridula spray test; conditions: 96 h, after 4 days; for mortality at 100 g/ha: application rate 100 g/ha; for mortality at 500 g/ha: application rate 500 g/ha
Method in brief: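 Compound in acetone/dimethylformamide, diluted in water with 1000 ppm alkylarylpolyglycol ether emulsifier, sprayed onto barley plants carrying stink bug larvae. Mortality (%) scored after 4 days, 100% meaning all insects killed.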

[11] = test system: Aedes aegypti strain MONHEIM; assay: Aedes aegypti test (AEDSAE surface treatment & contact assay); conditions: 24 hours after contact, read-out: efficacy (mortality); for mortality at 4 mg/m2: surface concentration 4 mg/m^2, exposure 30 minutes
Procedure: Aedes aegypti Test (AEDSAE Surface Treatment & Contact Assay)
Solvent: Aceton+2000 ppm rapeseed oil methyl ester (RME)
In order to produce a sufficient, active ingredient containing solution it is necessary to solve the test compound in the solvent-mix (acetone at 2 mg/ml/RME 2000 ppm). This solution is pipetted onto a glazed tile and after evaporation of the acetone, adult mosquitoes of the species Aedes aegypti strain MONHEIM are placed onto the dried surface. The exposure time is 30 minutes. Mortality in percent (%) is determined 24 hours after contact of the insects to the treated surface. 100% mortality means that all tested insects are dead, whereas 0% means that no insect died.

| SMILES | mortality at 100 g/ha [1] [%] | pest or weed control at 4 pg [2] [%] | pest or weed control at 0.02 mg [2] [%] | pest or weed control at 100 g/ha [3] [%] | mortality at 4 ppm [4] [%] | mortality at 100 ppm [5] [%] | pest or weed control at 100 g/ha [6] [%] | pest or weed control at 500 g/ha [6] [%] | pest or weed control at 100 g/ha [7] [%] | pest or weed control at 5 µg/cm2, 500 g/ha [7] [%] | pest or weed control at 5 µg/cm2 [8] [%] | mortality at 100 g/ha [9] [%] | mortality at 100 g/ha [10] [%] | mortality at 500 g/ha [9] [%] | mortality at 500 g/ha [10] [%] | mortality at 4 mg/m2 [11] [%] | mortality at 20 mg/m2 ([11]; surface concentration 20 mg/m^2, exposure 30 minutes) [%] |
| --- | --- | --- | --- | --- | --- | --- | --- | --- | --- | --- | --- | --- | --- | --- | --- | --- | --- |
| CC(C)c1nc([C@H](C)NC(=O)c2cc(Cl)cc(S(C)(=O)=O)c2)n(-c2ccc(C#N)cn2)n1 [I-16] | 100 | 100 | 100 | 80 | 100 | 100 | 100 | 100 | 100 | 100 | – | – | – | – | – | – | – |
| CC(NC(=O)c1cc(Cl)cc(S(C)(=O)=O)c1)c1nc(Cl)nn1-c1ccc(C#N)cn1 (stereo not drawn) [I-32] | 100 | 100 | 100 | – | – | 100 | 100 | 100 | – | – | 100 | – | – | – | – | – | – |
| CC(NC(=O)c1cc(Cl)cc(S(C)(=O)=O)c1)c1nc(I)nn1-c1ncccn1 (stereo not drawn) [I-41] | – | – | – | 100 | 100 | – | – | – | – | – | – | 100 | 100 | – | – | – | – |
| CC(NC(=O)c1cc(OC(F)(F)F)cc(C2CC2)c1)c1nc(I)nn1-c1ncccn1 (stereo not drawn) [I-43] | 100 | – | – | 100 | 100 | – | 100 | 100 | 100 | 100 | – | 100 | 100 | – | – | – | – |
| COc1nc([C@H](C)NC(=O)c2cc(Cl)cc(S(=O)(=O)C(F)(F)F)c2)n(-c2ccc(Cl)cn2)n1 [I-52] | 83 | – | – | – | – | – | – | – | – | – | 90 | – | – | – | – | – | – |
| C[C@H](NC(=O)c1cc(F)cc(S(C)(=O)=O)c1)c1nc(C2CC2)nn1-c1ccc(C#N)cn1 [I-63] | 100 | – | – | 100 | 100 | – | – | – | – | – | – | 90 | 100 | – | – | – | – |
| C[C@H](NC(=O)c1cc(F)cc(S(C)(=O)=O)c1)c1nc(C2CC2)nn1-c1ncc(Cl)cn1 [I-66] | 100 | – | – | 100 | 100 | – | – | – | – | – | – | 100 | 100 | 100 | 100 | – | – |
| C[C@H](NC(=O)c1cc(C(F)F)cc(S(C)(=O)=O)c1)c1nc(C2CC2)nn1-c1ncc(Cl)cn1 [I-67] | 100 | – | – | 100 | 100 | – | – | – | – | – | – | 90 | 100 | 100 | 100 | – | – |
| COc1nc([C@H](C)NC(=O)c2cc(C(F)F)cc(C3CC3)c2)n(-c2ccc(C#N)cn2)n1 [I-70] | – | – | – | – | – | – | 100 | 100 | – | 80 | 80 | – | – | – | – | – | – |
| COc1nc([C@H](C)NC(=O)c2cc(Cl)cc(S(=O)(=O)C3CC3)c2)n(-c2ncc(Cl)cn2)n1 [I-79] | 100 | – | – | – | 100 | – | – | – | – | – | – | 90 | 90 | – | 100 | – | – |
| COc1nc([C@H](C)NC(=O)c2cc(OC(F)(F)F)cc(S(=O)(=O)C3CC3)c2)n(-c2ncc(Cl)cn2)n1 [I-91] | 100 | – | – | 100 | – | – | – | – | – | – | – | 90 | – | – | 100 | – | – |
| COc1nc([C@H](C)NC(=O)c2cc(C(F)F)cc(S(=O)(=O)C3CC3)c2)n(-c2ccc(Cl)cn2)n1 [I-94] | 100 | – | – | 100 | – | – | – | – | – | – | – | 90 | – | – | 100 | – | – |
| CCS(=O)(=O)c1cc(C(=O)N[C@@H](C)c2ncnn2-c2ccc(Cl)cn2)cc(C(F)(F)F)c1 [II-45] | – | 100 | 100 | 100 | – | 100 | 100 | 100 | – | – | 80 | – | 100 | – | – | 80 to 100 | – |
| C[C@H](NC(=O)c1cc(C#N)cc(C2CC2)c1)c1ncnn1-c1ccc(C#N)cn1 [II-53] | 83 | – | – | – | – | 100 | 80 | 80 | – | – | 100 | – | – | – | – | 80 to 100 | 80 to 100 |
| C[C@H](NC(=O)c1cc(I)cc(C2CC2)c1)c1ncnn1-c1ccc(C#N)cn1 [II-58] | 100 | 100 | – | 100 | – | 100 | 100 | 100 | 100 | 100 | 80 | – | – | – | – | – | – |
| C[C@H](NC(=O)c1cc(Br)cc(C2CC2)c1)c1ncnn1-c1ccc(C#N)cn1 [II-59] | 100 | 80 | – | 100 | 100 | – | 100 | 100 | 100 | 100 | 100 | – | – | – | – | – | – |
